From article PMC8965496, “Combating multidrug resistance and metastasis of breast cancer by endoplasmic reticulum stress and cell-nucleus penetration enhanced immunochemotherapy” (Theranostics, 2022)

Tested on: MCF-7/ADR drug resistant cell line
Experiment: IC50 of DOX against drug-resistant cell line
Type: cell-based
Settings: ratio MCF-7/ADR to MCF-7

SMILES: COc1cccc2c1C(=O)c1c(O)c3c(c(O)c1C2=O)C[C@@](O)(C(=O)CO)C[C@@H]3O[C@H]1C[C@H](N)[C@H](O)[C@H](C)O1 [DOX, doxorubicin]
- IC50 in MCF-7/ADR cells relative to MCF-7 cells: 108.07 fold
